Test results reported in PubChem BioAssay (NCI).
“And” between values parts separate entries of the source, which are not always exact repeats. Equal entries are not always repeated.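 48-hour exposure; five concentrations; linearly interpolated endpoints. Here, GI50 denotes the concentration required for 50% inhibition of growth. TGI: total growth inhibition.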

Tests used:
Assay in all cases: NCI anticancer screen, dose series, 48 h
[1] = system: 786-0 renal
[2] = system: A549 NSCLC
[3] = system: ACHN renal
[4] = system: CAKI-1 renal
[5] = system: CCRF-CEM leukemia
[6] = system: COLO 205 colon
[7] = system: DU-145 prostate
[8] = system: HCT-116 colon
[9] = system: HCT-15 colon
[10] = system: HL-60(TB) leukemia
[11] = system: HOP-62 NSCLC
[12] = system: HS 578T breast
[13] = system: HT29 colon
[14] = system: IGROV1 ovarian
[15] = system: K-562 leukemia
[16] = system: KM12 colon
[17] = system: LOX IMVI melanoma
[18] = system: M14 melanoma
[19] = system: MCF7 breast
[20] = system: MDA-MB-231 breast
[21] = system: MDA-MB-435
[22] = system: NCI-H226 lung
[23] = system: NCI-H23 lung
[24] = system: NCI-H460 lung
[25] = system: NCI-H522 lung
[26] = system: NCI/ADR-RES ovarian
[27] = system: OVCAR-3 ovarian
[28] = system: OVCAR-4 ovarian
[29] = system: OVCAR-5 ovarian
[30] = system: OVCAR-8 ovarian
[31] = system: PC-3 prostate
[32] = system: RPMI-8226 leukemia
[33] = system: RXF 393 renal
[34] = system: SF-268 CNS
[35] = system: SF-295 CNS
[36] = system: SK-MEL-28 melanoma
[37] = system: SK-OV-3 ovarian
[38] = system: SN12C renal
[39] = system: SNB-19 CNS
[40] = system: SNB-75 CNS
[41] = system: SR leukemia
[42] = system: T-47D breast
[43] = system: TK-10 renal
[44] = system: U251 CNS
[45] = system: UACC-257 melanoma
[46] = system: UO-31 renal
[47] = system: A498 renal
[48] = system: BT-549 breast
[49] = system: HCC-2998 colon
[50] = system: HOP-92 NSCLC
[51] = system: MALME-3M melanoma
[52] = system: MOLT-4 leukemia
[53] = system: SF-539 CNS
[54] = system: SK-MEL-2 melanoma
[55] = system: SK-MEL-5 melanoma
[56] = system: SW-620 colon
[57] = system: UACC-62 melanoma

Structure (SMILES): CN(C)CCCCn1ccc2c1C(=O)c1c(c(O)c3ccccc3c1O)C2=O
- GI50 [1]: 12200 nM
- TGI [1]: 25300 nM
- GI50 [2]: 18900 nM
- TGI [2]: 36800 nM
- GI50 [3]: 14800 nM
- TGI [3]: 27900 nM
- GI50 [4]: 4020 nM
- TGI [4]: 17500 nM
- GI50 [5]: 1320 nM
- TGI [5]: 4540 nM
- GI50 [6]: 7050 nM
- TGI [6]: 21000 nM
- GI50 [7]: 20100 nM
- TGI [7]: 41900 nM
- GI50 [8]: 9030 nM
- TGI [8]: 21100 nM
- GI50 [9]: 16000 nM
- TGI [9]: 29400 nM
- GI50 [10]: 10400 nM
- TGI [10]: 23400 nM
- GI50 [11]: 15800 nM
- TGI [11]: 31000 nM
- GI50 [12]: 33100 nM
- TGI [12]: 60900 nM
- GI50 [13]: 5530 nM
- TGI [13]: 18400 nM
- GI50 [14]: 18600 nM
- TGI [14]: > 100000 nM
- GI50 [15]: 1780 nM
- TGI [15]: 4070 nM
- GI50 [16]: 10400 nM
- TGI [16]: 24400 nM
- GI50 [17]: 10400 nM
- TGI [17]: 24200 nM
- GI50 [18]: 2780 nM
- TGI [18]: 8700 nM
- GI50 [19]: 11300 nM
- TGI [19]: 28400 nM
- GI50 [20]: 17000 nM
- TGI [20]: 95600 nM
- GI50 [21]: 2010 nM
- TGI [21]: 3710 nM
- GI50 [22]: 6560 nM
- TGI [22]: 21800 nM
- GI50 [23]: 11200 nM
- TGI [23]: 23300 nM
- GI50 [24]: 19200 nM
- TGI [24]: 36900 nM
- GI50 [25]: 33800 nM
- TGI [25]: > 100000 nM
- GI50 [26]: 13300 nM
- TGI [26]: 27500 nM
- GI50 [27]: 2980 nM
- TGI [27]: 15900 nM
- GI50 [28]: 19600 nM
- TGI [28]: 43100 nM
- GI50 [29]: 12900 nM
- TGI [29]: 25600 nM
- GI50 [30]: 11500 nM
- TGI [30]: 25600 nM
- GI50 [31]: 10000 nM
- TGI [31]: 23400 nM
- GI50 [32]: 1740 nM
- TGI [32]: 7520 nM
- GI50 [33]: 2180 nM
- TGI [33]: 8910 nM
- GI50 [34]: 11000 nM
- TGI [34]: 30600 nM
- GI50 [35]: 4630 nM
- TGI [35]: 15500 nM
- GI50 [36]: 14700 nM
- TGI [36]: 28200 nM
- GI50 [37]: 11400 nM
- TGI [37]: 24000 nM
- GI50 [38]: 14100 nM
- TGI [38]: 28600 nM
- GI50 [39]: 14600 nM
- TGI [39]: 30500 nM
- GI50 [40]: 15800 nM
- TGI [40]: 35800 nM
- GI50 [41]: 4360 nM
- TGI [41]: 23600 nM
- GI50 [42]: 3770 nM
- TGI [42]: 22800 nM
- GI50 [43]: 501 nM
- TGI [43]: 7730 nM
- GI50 [44]: 17900 nM
- TGI [44]: 31700 nM
- GI50 [45]: 15500 nM
- TGI [45]: 29500 nM
- GI50 [46]: 33000 nM
- TGI [46]: > 100000 nM

Structure (SMILES): CC(C)C[C@H](NC(=O)[C@@H](NC(=O)c1cccc(-c2ccccc2)n1)[C@@H](C)O)B(O)O
- GI50 [1]: 12 nM and 14.7 nM
- GI50 [47]: 2.47 nM
- TGI [47]: 6.1 nM and < 17.8 nM
- GI50 [2]: 17.3 nM and 18.8 nM
- TGI [2]: 8580 nM
- GI50 [3]: 4.08 nM
- TGI [3]: > 11100 nM
- GI50 [48]: 4.7 nM
- GI50 [4]: 14.6 nM and < 17.4 nM
- TGI [5]: > 5160 nM
- GI50 [6]: 8.13 nM and < 12.6 nM
- TGI [6]: 3300 nM
- GI50 [7]: 7.7 nM
- TGI [7]: 1810 nM
- GI50 [49]: 5.17 nM and 11.6 nM
- TGI [49]: 17.1 nM and 18.9 nM
- GI50 [8]: 3.44 nM
- TGI [8]: 14.2 nM and 12.7 nM
- GI50 [9]: 17.6 nM and < 18.2 nM
- TGI [9]: 107 nM
- GI50 [10]: 3.79 nM and 10.1 nM
- TGI [10]: 162 nM and 28.7 nM
- GI50 [11]: 10.6 nM and < 10.6 nM
- TGI [11]: 35.8 nM and 39.1 nM
- GI50 [50]: 20.9 nM
- TGI [50]: 119 nM
- GI50 [12]: 4.04 nM and < 10.7 nM
- TGI [12]: > 100000 nM
- GI50 [13]: 3.96 nM
- TGI [13]: 23.3 nM and 46 nM
- GI50 [14]: 25.6 nM and 22.9 nM
- TGI [14]: 171 nM
- GI50 [15]: 6.49 nM and 19 nM
- TGI [15]: 30800 nM
- GI50 [16]: 13.2 nM and 12.7 nM
- TGI [16]: 67.2 nM and 22 nM
- GI50 [17]: 4.73 nM
- TGI [17]: 18.1 nM and 11.9 nM
- TGI [18]: 20.7 nM
- GI50 [51]: 2.97 nM
- TGI [51]: 8.38 nM and < 19.6 nM
- GI50 [19]: 4.25 nM
- TGI [19]: 36800 nM
- GI50 [20]: 4.85 nM and 19.1 nM
- GI50 [52]: 2.89 nM
- TGI [52]: 8.87 nM
- GI50 [22]: 2.19 nM and < 11.6 nM
- TGI [22]: 5.38 nM and 24.5 nM
- GI50 [23]: 6.33 nM
- GI50 [24]: 28.5 nM and 23.7 nM
- TGI [24]: 532 nM
- GI50 [25]: 3.02 nM
- TGI [25]: 8.81 nM
- GI50 [26]: 345 nM and 249 nM
- TGI [26]: 6190 nM
- GI50 [27]: 3.85 nM
- TGI [27]: 19.1 nM and < 11 nM
- GI50 [28]: 12.4 nM and 18.5 nM
- TGI [28]: 79000 nM
- GI50 [29]: 8.43 nM and < 11.2 nM
- TGI [29]: 51.3 nM
- GI50 [30]: 26.1 nM and 23.8 nM
- TGI [30]: > 51600 nM
- GI50 [31]: 23.6 nM
- TGI [31]: 1940 nM
- TGI [32]: < 10.8 nM
- GI50 [33]: 4.14 nM
- TGI [33]: 15.1 nM and < 11.9 nM
- GI50 [34]: 9.52 nM and 12 nM
- TGI [34]: 43.6 nM
- GI50 [35]: 10.2 nM
- TGI [35]: 55.3 nM and 26.2 nM
- GI50 [53]: 2.64 nM
- TGI [53]: 6.84 nM and < 11.4 nM
- GI50 [54]: 3.87 nM
- TGI [54]: 18.7 nM and < 19.5 nM
- GI50 [36]: 4.73 nM
- TGI [36]: 41.9 nM and 56.3 nM
- GI50 [55]: 4.21 nM
- TGI [55]: 17.7 nM and < 11.4 nM
- GI50 [37]: 47.4 nM and 32.5 nM
- TGI [37]: 7820 nM
- GI50 [38]: 15.1 nM and 19.3 nM
- TGI [38]: 413 nM
- GI50 [39]: 616 nM and 106 nM
- TGI [39]: > 52400 nM
- GI50 [40]: 14.4 nM and 10.5 nM
- TGI [40]: 45.4 nM and 30.8 nM
- GI50 [41]: 3.01 nM
- TGI [41]: 8.43 nM and < 102 nM
- GI50 [56]: 4.11 nM
- TGI [56]: 2340 nM
- GI50 [42]: 5.06 nM
- TGI [42]: 23.1 nM
- GI50 [43]: 3.52 nM
- TGI [43]: 59.2 nM and < 27.3 nM
- GI50 [44]: 25.1 nM and 17.6 nM
- TGI [44]: 1920 nM
- GI50 [45]: 5.02 nM
- TGI [45]: 31.9 nM and 21.3 nM
- GI50 [57]: 5.58 nM and < 11.1 nM
- TGI [57]: 31.1 nM and 41.2 nM
- GI50 [46]: 21.5 nM and 18.3 nM
- TGI [46]: 84.9 nM and 114 nM
